These results are taken from US9790229B2, “Bruton's tyrosine kinase inhibitors” (priority 2009, dated 2017).

The target in one assay is BTK (Homo sapiens (Human), UniProt Q06187). Description: In vitro BTK kinase assay: BTK-POLYGAT-LS ASSAY.
Chain of BTK (Q06187 whole entry): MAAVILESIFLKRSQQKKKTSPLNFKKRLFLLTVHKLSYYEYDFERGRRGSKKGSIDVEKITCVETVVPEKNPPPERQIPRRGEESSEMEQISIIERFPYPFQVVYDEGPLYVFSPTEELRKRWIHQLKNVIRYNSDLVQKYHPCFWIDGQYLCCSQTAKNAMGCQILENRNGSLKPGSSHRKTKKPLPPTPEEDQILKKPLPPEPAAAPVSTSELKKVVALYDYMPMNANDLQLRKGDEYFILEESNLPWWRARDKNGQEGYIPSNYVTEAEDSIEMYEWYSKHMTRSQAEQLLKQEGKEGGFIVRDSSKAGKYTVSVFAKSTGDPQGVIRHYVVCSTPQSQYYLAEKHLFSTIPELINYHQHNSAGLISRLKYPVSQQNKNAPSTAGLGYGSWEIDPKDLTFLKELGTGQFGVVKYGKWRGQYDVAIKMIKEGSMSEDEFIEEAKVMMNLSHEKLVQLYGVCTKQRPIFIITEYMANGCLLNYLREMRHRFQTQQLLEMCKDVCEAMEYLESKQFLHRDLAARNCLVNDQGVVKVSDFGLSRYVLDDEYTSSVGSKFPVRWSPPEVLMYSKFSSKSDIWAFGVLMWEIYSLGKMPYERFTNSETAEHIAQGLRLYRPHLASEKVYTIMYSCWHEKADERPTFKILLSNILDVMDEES
Details: not given
By IC50 is commonly meant the point on the concentration scale where inhibition reaches its midpoint. Turning to `O=C(Nc1ccccc1)N[C@@H]1CCCN(C2CCCN(c3ncnc4[nH]ccc34)C2)C1` (some centres unmarked) [compound 205], the IC50 lay within 1000 to 10000 nM. Regarding `CS(=O)(=O)c1ccccc1NC(=O)Nc1cccc(C2CCCN(c3ncnc4[nH]ccc34)C2)c1` (centres unmarked) [Cmpd 64, 1-(3-(1-(7H-pyrrolo[2,3-d]pyrimidin-4-yl)piperidin-3-yl)phenyl)-3-(2-(methylsulfonyl)phenyl)urea], the IC50 lay within 1000 to 10000 nM. Compound `O=C(Nc1ccccc1)Nc1cccc(C2CCCN(c3ncnc4[nH]ncc34)C2)c1` (centres unmarked) [Cmpd 91, 1-(3-(1-(1H-pyrazolo[3,4-d]pyrimidin-4-yl)piperidin-3-yl)phenyl)-3-phenylurea] registered an IC50 of 1000 to 10000 nM. Same read-out and setting: the value for `O=C(Nc1cccc(C2CCCN(c3ncnc4[nH]ccc34)C2)c1)N[C@H](CO)C1CCCCC1` (some centres unmarked) [compound 203] was 1000 to 10000 nM; that for `O=C(CCc1ccccc1)Nc1cccc(C2CCCN(c3ncnc4[nH]ccc34)C2)c1` (centres unmarked) [Cmpd 23, N-(3-(1-(7H-pyrrolo[2,3-d]pyrimidin-4-yl)piperidin-3-yl)phenyl)-3-phenylpropanamide] was 1000 to 10000 nM; that for `O=C(Nc1ccc(Cl)cc1)Nc1cccc(C2CCCN(c3ncnc4[nH]ccc34)C2)c1` (centres unmarked) [Cmpd 27, 1-(3-(1-(7H-pyrrolo[2,3-d]pyrimidin-4-yl)piperidin-3-yl)phenyl)-3-(4-chlorophenyl)urea] was 1000 to 10000 nM. Same read-out and setting: the value for `O=C(Nc1cccc(C2CCCN(c3ncnc4[nH]ccc34)C2)c1)c1ccccc1` (centres unmarked) [Cmpd 2, N-(3-(1-(7H-pyrrolo[2,3-d]pyrimidin-4-yl)piperidin-3-yl)phenyl)benzamide] was 1000 to 10000 nM. Compound `N#Cc1c(N)ncnc1N1CCCC(c2ccc(OC(F)(F)F)c(NC(=O)c3ccccc3Cl)c2)C1` (centres unmarked) [compound 145] returned an IC50 of 100 to 999 nM. The same measure, in the same setting: the value for `O=C(Nc1cccc(C2CCCN(c3ncnc4[nH]ccc34)C2)c1)Nc1cc(F)ccc1N1CCCC1` (centres unmarked) [compound 160] was 100 to 999 nM; that for `CCCNc1ncnc(N2CCC[C@@H](N3CCCC(Nc4cc(F)cc(Cl)c4)C3=O)C2)c1F` (stereo partly drawn) [compound 288, (3′R)-3-(3-Chloro-5-fluorophenylamino)-1′-(5-fluoro-6-(propylamino)pyrimidin-4-yl)-1,3′-bipiperidin-2-one] was 1000 to 10000 nM; that for `O=C(Nc1ccccc1)Nc1cccc(C2CCCN(c3ncnc4[nH]ccc34)C2)n1` (centres unmarked) [compound 118, 1-(6-(1-(7H-pyrrolo[2,3-d]pyrimidin-4-yl)piperidin-3-yl)pyridin-2-yl)-3-phenylurea] was 1000 to 10000 nM. For the compound `c1ccc(Nc2cccc(C3CCCN(c4ncnc5[nH]ccc45)C3)c2)nc1` (centres unmarked) [compound 140, N-(3-(1-(7H-pyrrolo[2,3-d]pyrimidin-4-yl)piperidin-3-yl)phenyl)pyridin-2-amine], the IC50 fell in the range of 1000 to 10000 nM.

For `Nc1ncnc(N2CCC[C@@H](N3CC[C@@H](Nc4cc(Cl)cc(Cl)c4)C3=O)C2)c1Cl` [compound 354], the IC50 was in the range of 100 to 999 nM.

`O=C(Nc1cc(C2CCCN(c3ncnc4[nH]ccc34)C2)ccc1OC(F)(F)F)c1ccccc1Cl` (centres unmarked) [Cmpd 86, N-(5-(1-(7H-pyrrolo[2,3-d]pyrimidin-4-yl)piperidin-3-yl)-2-(trifluoromethoxy)phenyl)-2-chlorobenzamide] yielded an IC50 of 100 to 999 nM.

For the compound `CCc1cccc(CC)c1NC(=O)Nc1cccc(C2CCCN(c3ncnc4[nH]ccc34)C2)c1` (centres unmarked) [Cmpd 33, 1-(3-(1-(7H-pyrrolo[2,3-d]pyrimidin-4-yl)piperidin-3-yl)phenyl)-3-(2,6-diethylphenyl)urea], the IC50 lay within 100 to 999 nM.

Compound `Nc1ncnc(N2CC[C@@H](O)[C@H](N3CCC[C@H](Nc4cc(Cl)cc(Cl)c4)C3=O)C2)c1F` [compound 328, trans (3S)-1′-(6-Amino-5-fluoropyrimidin-4-yl)-3-(3,5-dichlorophenylamino)-4′-hydroxy-1,3′-bipiperidin-2-one] returned an IC50 of 1000 to 10000 nM.

`O=C(NCC1(O)CCCCC1)Nc1cccc(C2CCCN(c3ncnc4[nH]ccc34)C2)c1` (centres unmarked) [compound 184] showed an IC50 of 1000 to 10000 nM. Consider `O=C(Nc1ccccc1)Nc1cccc(C2CCCN(c3ncnc4[nH]cnc34)C2)c1` (centres unmarked) [Cmpd 103, 1-(3-(1-(9H-Purin-6-yl)piperidin-3-yl)phenyl)-3-phenylurea], for which the IC50 fell in the range of 100 to 999 nM. The same measure, in the same setting: the value for `Nc1ncnc(N2CC[C@H](O)[C@@H](N3CCCC(Nc4cc(Cl)cc(Cl)c4)C3=O)C2)c1F` (stereo partly drawn) [compound 325, trans 1′-(6-Amino-5-fluoropyrimidin-4-yl)-3-(3,5-dichlorophenylamino)-4′-hydroxy-1,3′-bipiperidin-2-one] was 100 to 999 nM.

Staying with this assay, now noted: read-out: IC50 (10 uM ATP); 10 uM ATP; in vitro Btk kinase assay, Example 41.
In the case of `COc1cccc(C(=O)Nc2cccc(C3CCCN(c4ncnc5[nH]ccc45)C3)c2)c1` (centres unmarked) [Cmpd 7, N-(3-(1-(7H-pyrrolo[2,3-d]pyrimidin-4-yl)piperidin-3-yl)phenyl)-3-methoxybenzamide], the IC50 is greater than 10000 nM. Still for that read-out and setting: then `Nc1ncnc(N2CCC[C@@H](N3CC(O)C(O)C[C@@H](Nc4cc(F)cc(Cl)c4)C3=O)C2)c1F` (stereo partly drawn) [compound 348, (3R)-1-((R)-1-(6-amino-5-fluoropyrimidin-4-yl)piperidin-3-yl)-3-(3-chloro-5-fluorophenylamino)-5,6-dihydroxyazepan-2-one], with less than 100 nM; and `Nc1ncnc(N2CCC[C@@H](N3CCCC[C@@H](Nc4cc(F)cc(Cl)c4)C3=O)C2)c1F` [compound 346, (R)-1-((R)-1-(6-amino-5-fluoropyrimidin-4-yl)piperidin-3-yl)-3-(3-chloro-5-fluorophenylamino)azepan-2-one], with less than 100 nM; and `N[C@@H](C(=O)Nc1cccc(C2CCCN(c3ncnc4[nH]ccc34)C2)c1)c1ccccc1` (stereo partly drawn) [Cmpd 21, (2R)—N-(3-(1-(7H-pyrrolo[2,3-d]pyrimidin-4-yl)piperidin-3-yl)phenyl)-2-amino-2-phenylacetamide], with greater than 10000 nM. Still for that read-out and setting: the value for `CN(C(=O)Nc1ccccc1)c1cccc(C2CCCN(c3ncnc4[nH]ccc34)C2)c1` (centres unmarked) [compound 136, 1-(3-(1-(7H-Pyrrolo[2,3-d]pyrimidin-4-yl)piperidin-3-yl)phenyl)-1-methyl-3-phenylurea] was greater than 10000 nM. Still for that read-out and setting: the value for `CNc1c(Nc2cccc(C3CCCN(c4ncnc5[nH]ccc45)C3)c2)c(=O)c1=O` (centres unmarked) [Cmpd 72, 3-(3-(1-(7H-pyrrolo[2,3-d]pyrimidin-4-yl)piperidin-3-yl)phenylamino)-4-(methylamino)cyclobut-3-ene-1,2-dione] was greater than 10000 nM; that for `Nc1ncnc(N2CCC[C@@H](N3CCCC(Nc4cc(F)cc(Cl)c4)C3=O)C2)c1F` (stereo in doubt) [compound 313, (3R,3′R)-1′-(6-Amino-5-fluoropyrimidin-4-yl)-3-(3-chloro-5-fluorophenylamino)-1,3′-bipiperidin-2-one] was less than 100 nM.

In the case of `Cc1cccc(Cl)c1NC(=O)Nc1cccc(C2CCCN(c3ncnc4[nH]ccc34)C2)c1` (centres unmarked) [compound 238], the IC50 is greater than 10000 nM. Same read-out and setting: the value for `Nc1ncnc(N2CC[C@@H](C(F)(F)F)[C@H](N3CC=CC[C@@H](Nc4cc(F)cc(Cl)c4)C3=O)C2)c1F` [compound 350] was less than 100 nM. The same measure, in the same setting: the value for `N#C/N=C(/NCC1CCCCC1)Nc1cccc(C2CCCN(c3ncnc4[nH]ccc34)C2)c1` (centres unmarked) [Cmpd 76, (E)-1-(3-(1-(7H-pyrrolo[2,3-d]pyrimidin-4-yl)piperidin-3-yl)phenyl)-2-cyano-3-(cyclohexylmethyl)guanidine] was greater than 10000 nM. The same measure, in the same setting: then `Nc1ncnc(N2CCC[C@@H](N3CCCC(Nc4cc(F)cc(Cl)c4)C3=O)C2)c1F` (stereo partly drawn) [compound 277, (3′R)-1′-(6-amino-5-fluoropyrimidin-4-yl)-3-(3-chloro-5-fluorophenylamino)-1,3′-bipiperidin-2-one], with less than 100 nM. With `O=C(NCC1CCOCC1)Nc1cccc(C2CCCN(c3ncnc4[nH]ccc34)C2)c1` (centres unmarked) [compound 223], the IC50 was greater than 10000 nM. Same read-out and setting: then `CCOC(=O)c1ccccc1NC1CCCN([C@@H]2CCCN(c3ncnc(N)c3F)C2)C1=O` (stereo partly drawn) [compound 295, Ethyl-2-((3′R)-1′-(6-amino-5-fluoropyrimidin-4-yl)-2-oxo-1,3′-bipiperidin-3-ylamino) benzoate], with greater than 10000 nM.

On to `O=C1C(Nc2cc(Cl)cc(Cl)c2)CCCN1[C@@H]1CCCN(c2ncnc3[nH]ccc23)C1` (stereo partly drawn) [compound 276, (3′R)-3-(3,5-Dichloro-phenylamino)-1′-(7H-pyrrolo[2,3-d]pyrimidin-4-yl)-1,3′-bipiperidin-2-one], for which the IC50 is less than 100 nM. The same measure, in the same setting: then `Nc1ncnc(N2CCOCC(N3CCCC(Nc4cc(F)cc(Cl)c4)C3=O)C2)c1F` (centres unmarked) [compound 345, 1-(4-(6-Amino-5-fluoropyrimidin-4-yl)-1,4-oxazepan-6-yl)-3-(3-chloro-5-fluorophenylamino)piperidin-2-one], with less than 100 nM. On the same count and under the same terms, the value for `CC(=O)N1CCC(CNC(=O)Nc2cccc(C3CCCN(c4ncnc5[nH]ccc45)C3)c2)CC1` (centres unmarked) [compound 246] was greater than 10000 nM; that for `Nc1ncnc(N2CC[C@@H](O)[C@H](N3CCC[C@@H](Nc4cc(Cl)cc(Cl)c4)C3=O)C2)c1F` [compound 327, trans (3R)-1′-(6-Amino-5-fluoropyrimidin-4-yl)-3-(3,5-dichlorophenylamino)-4′-hydroxy-1,3′-bipiperidin-2-one] was less than 100 nM. Still for that read-out and setting: the value for `O=C(Nc1csc(C2CCCN(c3ncnc4[nH]ccc34)C2)n1)Nc1c(F)cc(F)cc1N1CCCC1` (centres unmarked) [compound 111, 1-(2-(1-(7H-pyrrolo[2,3-d]pyrimidin-4-yl)piperidin-3-yl)thiazol-4-yl)-3-(2,4-difluoro-6-(pyrrolidin-1-yl)phenyl)urea] was less than 100 nM. Take `O=C(Nc1ccc(C2CCCC2)cc1)Nc1cccc(C2CCCN(c3ncnc4[nH]ccc34)C2)c1` (centres unmarked) [compound 255]: the IC50 was greater than 10000 nM. On the same count and under the same terms, the value for `Cc1cc(NC(=O)Nc2cccc(C3CCCN(c4ncnc5[nH]ccc45)C3)c2)n(-c2ccccc2)n1` (centres unmarked) [compound 227] was greater than 10000 nM; that for `CC(C)(C#N)c1ccccc1NC(=O)Nc1cccc(C2CCCN(c3ncnc4[nH]ccc34)C2)c1` (centres unmarked) [compound 260] was greater than 10000 nM. Same read-out and setting: then `CC1(C)[C@@H]2CCC(CNC(=O)Nc3cccc(C4CCCN(c5ncnc6[nH]ccc56)C4)c3)[C@H]1C2` (some centres unmarked) [compound 258], with greater than 10000 nM.
